What all share (type): biochemical
One experiment concerns the target T1, JAK1 (Homo sapiens, UniProt P23458).
T1 construct: purchased Carna Biosciences
In words: JAK1 microfluidic kinase assay (Caliper EZ Reader II, FAM labeled peptide substrate). As to conditions: (5 nM), 1 mM ATP. As to the method: (§1) Compounds were tested against JAK1, JAK2, JAK2V617F and TYK2.
(§2) Assay Formats: JAK activity was determined in the reaction buffer 50 mM HEPES, 0.01% Brij35, 10 mMMgCl2, 2 mMDTT by a microfluidic assay. The phosphorylation of a FAM labeled peptide substrate was monitored in the Caliper EZ Reader II (Perkin Elmer). The assay condition for each batch of enzyme (Carna Biosciences) was optimized to obtain 10% conversion rate of peptide substrate.
(§3) The test compounds were dissolved in DMSO to a stock concentration of 10 mM. 3-fold serially diluted compounds with top concentration of 5 μM were pre-incubated with JAK1, JAK2, JAK2V617F or TYK2 for 10 min at ambient temperature. The final DMSO concentration of assay mixture was 1%. FAM labeled peptide substrate (final concentration […]) and ATP (1 mM concentration) were sequentially added to initiate the kinase reaction at 28° C. The reaction was stopped by adding 50 mMEDTA. The reaction time for JAK1, JAK2, JAK2V617F and TYK2 was 120 min, 20 min, 30 min and 10 min, respectively.
(§4) The well in the test plate without enzyme was defined as 100% inhibition. And the well without compound but with equivalent DMSO was defined as no inhibition. The percent inhibition was calculated by the following formula. % Inhibition=(Conversionmax−Conversionsample)/(Conversionmax−Conversionmin)*100Conversionmax means the conversion rate in the positive well without addition of compound Conversionmin means the conversion rate in the well without addition of enzyme Conversionsample means the conversion rate of test compounds
(§5) The dose-response (percent inhibition) curve was plotted and IC50 values were determined by GraphPad software.

The target in a further experiment is T2, JAK2V617F (Homo sapiens, UniProt O60674, V617F).
T2 construct: purchased Carna Biosciences
T2 sequence (O60674 whole entry V617F): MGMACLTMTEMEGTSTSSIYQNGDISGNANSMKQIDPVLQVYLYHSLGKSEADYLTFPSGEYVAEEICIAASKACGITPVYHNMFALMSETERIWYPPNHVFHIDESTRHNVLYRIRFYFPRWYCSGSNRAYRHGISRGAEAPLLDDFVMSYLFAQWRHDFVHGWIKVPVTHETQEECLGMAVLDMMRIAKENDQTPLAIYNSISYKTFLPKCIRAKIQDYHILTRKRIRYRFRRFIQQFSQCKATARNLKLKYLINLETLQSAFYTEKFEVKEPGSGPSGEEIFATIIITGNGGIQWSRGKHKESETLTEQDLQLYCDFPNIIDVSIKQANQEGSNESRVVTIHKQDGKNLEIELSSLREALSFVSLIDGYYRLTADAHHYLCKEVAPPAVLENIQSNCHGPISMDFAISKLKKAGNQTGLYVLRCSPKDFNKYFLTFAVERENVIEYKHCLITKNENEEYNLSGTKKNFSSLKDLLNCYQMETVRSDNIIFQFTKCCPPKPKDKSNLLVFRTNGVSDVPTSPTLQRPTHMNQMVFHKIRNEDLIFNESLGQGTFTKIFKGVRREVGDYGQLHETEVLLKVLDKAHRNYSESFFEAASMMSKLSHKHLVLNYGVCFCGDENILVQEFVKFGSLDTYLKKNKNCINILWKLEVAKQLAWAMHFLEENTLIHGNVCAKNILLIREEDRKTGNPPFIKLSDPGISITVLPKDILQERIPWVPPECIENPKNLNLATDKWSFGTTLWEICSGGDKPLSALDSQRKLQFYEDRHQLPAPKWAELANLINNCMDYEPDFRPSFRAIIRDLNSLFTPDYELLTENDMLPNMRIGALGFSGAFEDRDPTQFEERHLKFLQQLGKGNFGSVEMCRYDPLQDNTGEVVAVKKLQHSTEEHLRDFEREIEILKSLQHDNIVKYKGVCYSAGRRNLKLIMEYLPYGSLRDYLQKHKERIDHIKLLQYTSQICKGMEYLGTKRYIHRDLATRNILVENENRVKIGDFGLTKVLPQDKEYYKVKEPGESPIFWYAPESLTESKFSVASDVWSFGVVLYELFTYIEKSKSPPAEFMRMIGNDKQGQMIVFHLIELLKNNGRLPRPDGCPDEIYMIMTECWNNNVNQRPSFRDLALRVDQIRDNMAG
In words: JAK2V617F microfluidic kinase assay (Caliper EZ Reader II, FAM labeled peptide substrate). Conditions: (2.5 nM), 1 mM ATP. As to the method: as §1, §2, §3, §4, §5

The target in a further experiment is T3, JAK2 (Homo sapiens, UniProt O60674).
T3 construct: purchased Carna Biosciences
T3 sequence (O60674 whole entry): as the sequence (O60674 whole entry V617F) above, with F617V counted along it
In words: JAK2 microfluidic kinase assay (Caliper EZ Reader II, FAM labeled peptide substrate). As to conditions: (0.25 nM), 1 mM ATP. The protocol:
as §1, §2, §3, §4, §5

[1] abbreviates: Table 2, read-out: IC50 JAK1 (5 nM) (1 mM ATP).
Setting [2] is: Table 2, read-out: IC50 J2V617F (2.5 nM) (1 mM ATP).
The mark [3] stands for this setting: Table 3B, literature compounds, read-out: JAK1 (5 nM) (1 mM ATP).
[4] abbreviates: Table 3B, literature compounds, read-out: J2V617F (2.5 nM) (1 mM ATP).
Where [5] appears, read: Table 3B, literature compounds, read-out: JAK2 (0.25 nM) (1 mM ATP).
The mark [6] stands for this setting: Table 2, read-out: IC50 JAK2 (0.25 nM) (1 mM ATP).

Like-named read-outs stand apart in the source and are kept apart here.

T1 sequence (P23458 whole entry): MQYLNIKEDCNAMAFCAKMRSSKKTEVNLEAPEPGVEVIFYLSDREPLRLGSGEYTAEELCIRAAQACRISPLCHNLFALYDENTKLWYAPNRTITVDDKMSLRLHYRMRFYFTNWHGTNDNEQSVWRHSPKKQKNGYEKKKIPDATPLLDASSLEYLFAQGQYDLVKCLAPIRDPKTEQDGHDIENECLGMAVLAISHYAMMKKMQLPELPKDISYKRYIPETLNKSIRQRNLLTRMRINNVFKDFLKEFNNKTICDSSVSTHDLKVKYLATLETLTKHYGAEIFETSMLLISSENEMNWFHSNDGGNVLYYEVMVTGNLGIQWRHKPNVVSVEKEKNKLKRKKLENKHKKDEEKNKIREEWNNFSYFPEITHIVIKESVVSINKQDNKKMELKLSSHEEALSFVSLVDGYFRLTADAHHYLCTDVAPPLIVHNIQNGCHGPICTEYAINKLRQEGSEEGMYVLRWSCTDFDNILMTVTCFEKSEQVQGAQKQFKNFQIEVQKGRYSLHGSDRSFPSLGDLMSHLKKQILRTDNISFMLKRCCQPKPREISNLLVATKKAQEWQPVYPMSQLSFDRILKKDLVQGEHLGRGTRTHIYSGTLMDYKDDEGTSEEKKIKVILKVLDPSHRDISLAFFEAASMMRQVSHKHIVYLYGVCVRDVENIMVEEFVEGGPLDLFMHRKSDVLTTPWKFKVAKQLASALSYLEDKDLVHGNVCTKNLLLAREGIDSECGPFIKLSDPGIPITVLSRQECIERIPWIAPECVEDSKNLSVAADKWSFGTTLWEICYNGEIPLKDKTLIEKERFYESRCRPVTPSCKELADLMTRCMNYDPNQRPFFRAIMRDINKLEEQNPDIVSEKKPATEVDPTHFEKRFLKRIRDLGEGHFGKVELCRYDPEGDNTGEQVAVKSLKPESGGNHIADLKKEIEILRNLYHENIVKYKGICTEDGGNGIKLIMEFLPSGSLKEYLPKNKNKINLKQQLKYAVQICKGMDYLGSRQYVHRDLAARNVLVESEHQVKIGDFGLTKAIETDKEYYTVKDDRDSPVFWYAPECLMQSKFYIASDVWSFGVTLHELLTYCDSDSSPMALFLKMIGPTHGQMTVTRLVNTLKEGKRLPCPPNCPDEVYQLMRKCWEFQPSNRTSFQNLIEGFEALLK

On to `N#CC1(COc2ccc(-c3nc(Nc4cnn(C5CC5)c4)ncc3Cl)cc2F)CC1` [Example 27, 1-((4-(5-chloro-2-((l-cyclopropyl-1H-pyrazol-4-yl)amino)pyrimidin-4-yl)-2-fluorophenoxy)methyl)cyclopropane carbonitrile], for which the IC50 was determined as 5.53 nM at JAK1 (setting [1]) and 1.49 nM at JAK2V617F (setting [2]).
In the same order, the values of `CC(C)(C#N)COc1ccc(-c2nc(Nc3cnn(C4CCOCC4)c3)ncc2Cl)cc1F` [Example 26, 3-(4-(5-chloro-2-((1-(tetrahydro-2H-pyran-4-yl)-1H-pyrazol-4-yl)amino)pyrimidin-4-yl)-2-fluorophenoxy)-2,2-dimethylpropanenitrile] are 6.17 nM and less than 1.25 nM.
As for `COc1ccc(-c2nc(Nc3cnn(C)c3)ncc2C)cc1F` [Example 45, 4-(3-fluoro-4-methoxyphenyl)-5-methyl-N-(1-methyl-1H-pyrazol-4-yl)pyrimidin-2-amine, reference compound], the IC50 at JAK1 (setting [3]) came to 110 nM; at JAK2V617F (setting [4]) it was 206 nM; on JAK2 (setting [5]), 121 nM.
In the case of `Cc1cnc(Nc2cnn(C3CCOCC3)c2)nc1-c1ccc(OC(C)C(C)(C)C#N)cc1` (centres unmarked) [Example 16, 2,2-dimethyl-3-(4-(5-methyl-2-((1-(tetrahydro-2H-pyran-4-yl)-1H-pyrazol-4-yl)amino)pyrimidin-4-yl)phenoxy)butanenitrile], the IC50 at JAK1 (setting [1]) came out at 39.2 nM; on JAK2V617F (setting [2]) it was 6.33 nM.
The like results for `N#CC1(COc2ccc(-c3nc(Nc4cnn(C5CCOCC5)c4)ncc3Cl)cc2F)CC1` [Example 23, 1-((4-(5-chloro-2-((1-(tetrahydro-2H-pyran-4-yl)-1H-pyrazol-4-yl)amino)pyrimidin-4-yl)-2-fluorophenoxy)methyl)cyclopropane-carbonitrile] were, in that order, 13.6 nM and less than 1.25 nM.
On to `Cc1cnc(Nc2cnn(C3CC3)c2)nc1-c1ccc(N(C)CC(C)(C)C#N)c(F)c1` [Example 35, 3-((4-(2-((1-cyclopropyl-1H-pyrazol-4-yl)amino)-5-methylpyrimidin-4-yl)-2-fluorophenyl)(methyl)amino)-2,2-dimethylpropanenitrile], for which the results for the IC50 at JAK1 (setting [1]) and at JAK2 (setting [6]) were 72.1 nM and 1.66 nM, respectively.
In the same order, the values of `Cc1cnc(Nc2cnn(CC#N)c2)nc1-c1ccc(OCC(C)(C)C#N)c(F)c1` [Example 30, 3-(4-(2-((1-(cyanomethyl)-1H-pyrazol-4-yl)amino)-5-methylpyrimidin-4-yl)-2-fluorophenoxy)-2,2-dimethylpropanenitrile] are less than 2.5 nM and 0.3 nM.
As to `N#CC1(COc2ccc(-c3nc(Nc4cnn(C5CC5)c4)ncc3F)cc2F)CC1` [Example 24, 1-((4-(2-((1-cyclopropyl-1H-pyrazol-4-yl)amino)-5-fluoropyrimidin-4-yl)-2-fluorophenoxy)methyl)cyclopropane-carbonitrile], the IC50 was found to be 84.2 nM at JAK1 (setting [1]) and 111 nM on JAK2V617F (setting [2]).
On to `Cc1cnc(Nc2cnn(C3CC3)c2)nc1-c1ccc2c(c1)CC(C#N)CO2` (centres unmarked) [Example 34, 6-(2-((1-cyclopropyl-1H-pyrazol-4-yl)amino)-5-methylpyrimidin-4-yl)chroman-3-carbonitrile], for which the IC50 on JAK1 (setting [1]) was 136 nM; on JAK2 (setting [6]), 58.8 nM.
With `Cc1cnc(Nc2cnn(C3CCN(C(=O)C4CC4)CC3)c2)nc1-c1ccc(OCC2(C#N)CC2)c(F)c1` [Example 8, 1-((4-(2-((1-(1-(cyclopropanecarbonyl)piperidin-4-yl)-1H-pyrazol-4-yl)amino)-5-methylpyrimidin-4-yl)-2-fluorophenoxy)methyl)cyclopropane-carbonitrile], the figures for the IC50 at JAK1 (setting [1]) and on JAK2V617F (setting [2]) were 6.2 nM and less than 1.25 nM, respectively.
In the case of `Cc1cnc(Nc2cnn(CC#N)c2)nc1-c1ccc(OCC2(C#N)CC2)c(F)c1` [Example 31, 1-((4-(2-((1-(cyanomethyl)-1H-pyrazol-4-yl)amino)-5-methylpyrimidin-4-yl)-2-fluorophenoxy)methyl)cyclopropane-carbonitrile], the IC50 at JAK1 (setting [1]) is 7.94 nM; on JAK2 (setting [6]) it was 3.2 nM.
`CC(=O)N1CCC(n2cc(Nc3ncc(C)c(-c4ccc(OCC(C)(C)C#N)c(F)c4)n3)cn2)CC1` [Example 28, 3-(4-(2-((1-(1-acetylpiperidin-4-yl)-1H-pyrazol-4-yl)amino)-5-methylpyrimidin-4-yl)-2-fluorophenoxy)-2,2-dimethylpropanenitrile]: the IC50 at JAK1 (setting [1]) is less than 2.5 nM; on JAK2V617F (setting [2]), less than 1.25 nM.
In the same order, the values of `CC(=O)N1CCC(n2cc(Nc3ncc(C)c(-c4ccc(OCC5(C#N)CC5)c(F)c4)n3)cn2)CC1` [Example 13, 1-((4-(2-((1-(1-acetylpiperidin-4-yl)-1H-pyrazol-4-yl)amino)-5-methylpyrimidin-4-yl)-2-fluorophenoxy)methyl)cyclopropane-carbonitrile] are 5.58 nM and less than 1.25 nM.
As for `CC(C)(C#N)COc1ccc(-c2nc(Nc3cnn(C4CCOCC4)c3)ncc2F)cc1F` [Example 25, 3-(2-fluoro-4-(5-fluoro-2-((1-(tetrahydro-2H-pyran-4-yl)-1H-pyrazol-4-yl)amino)pyrimidin-4-yl)phenoxy)-2,2-dimethylpropanenitrile], the IC50 at JAK1 (setting [1]) and on JAK2V617F (setting [2]) was 32 nM in each case.
For `CCCOc1ccc(-c2nc(Nc3cnn(C)c3)ncc2C)cc1F` [Example 48, 4-(3-fluoro-4-propoxyphenyl)-5-methyl-N-(1-methyl-1H-pyrazol-4-yl)pyrimidin-2-amine, reference compound], the figures for the IC50 on JAK1 (setting [3]), on JAK2V617F (setting [4]) and at JAK2 (setting [5]) were 25.7 nM, 60 nM and 39.6 nM, respectively.
For the compound `Cc1cnc(Nc2cnn(C)c2)nc1-c1ccc(OC(C)C)c(F)c1` [Example 47, 4-(3-fluoro-4-isopropoxyphenyl)-5-methyl-N-(1-methyl-1H-pyrazol-4-yl)pyrimidin-2-amine, reference compound], the IC50 on JAK1 (setting [3]) came to 48.6 nM; on JAK2V617F (setting [4]), 84.2 nM; on JAK2 (setting [5]), 61.3 nM.
As to `Cc1cnc(Nc2cnn(C3CC3)c2)nc1-c1ccc(OC2CC(C#N)C2)cc1` (centres unmarked) [Example 2, 3-(4-(2-((1-cyclopropyl-1H-pyrazol-4-yl)amino)-5-methylpyrimidin-4-yl)phenoxy)cyclobutanecarbonitrile], the IC50 at JAK1 (setting [1]) worked out at 72.7 nM; at JAK2V617F (setting [2]) it was 171 nM.
As for `Cc1cnc(Nc2cnn(C3CCN(C(=O)C4(C)CC4)CC3)c2)nc1-c1ccc(OCC2(C#N)CC2)c(F)c1` [Example 9, 1-((2-fluoro-4-(5-methyl-2-((1-(1-(1-methylcyclopropanecarbonyl)piperidin-4-yl)-1H-pyrazol-4-yl)amino)pyrimidin-4-yl)phenoxy)methyl)cyclopropane-carbonitrile], the IC50 at JAK1 (setting [1]) was 7.06 nM; on JAK2V617F (setting [2]), less than 1.25 nM.
As to `Cc1cnc(Nc2cnn(C3CC3)c2)nc1-c1cc(F)c(OCC2(C#N)CC2)c(F)c1` [Example 10, 1-((4-(2-((1-cyclopropyl-1H-pyrazol-4-yl)amino)-5-methylpyrimidin-4-yl)-2,6-difluorophenoxy)methyl)cyclopropane carbonitrile], the IC50 is 124 nM on JAK1 (setting [1]) and 113 nM at JAK2V617F (setting [2]).
Consider `CN(CC(C)(C)C#N)c1ccc(-c2nc(Nc3cnn(C4CC4)c3)ncc2Cl)cc1F` [Example 36, 3-((4-(5-chloro-2-((1-cyclopropyl-1H-pyrazol-4-yl)amino)pyrimidin-4-yl)-2-fluorophenyl)(methyl)amino)-2,2-dimethylpropanenitrile], for which the IC50 on JAK1 (setting [1]) was determined as 103 nM; on JAK2 (setting [6]), 4.6 nM.
As for `N#CC1(COc2ccc(-c3nc(Nc4cnn(C5CCOCC5)c4)ncc3F)cc2F)CC1` [Example 22, 1-((2-fluoro-4-(5-fluoro-2-((1-(tetrahydro-2H-pyran-4-yl)-1H-pyrazol-4-yl)amino)pyrimidin-4-yl)phenoxy)methyl)cyclopropane-carbonitrile], the figures for the IC50 at JAK1 (setting [1]) and on JAK2V617F (setting [2]) were 136 nM and 56.8 nM, respectively.
The like results for `Cc1cnc(Nc2cnn(C3CCOCC3)c2)nc1-c1ccc(OCC(C)(C)C#N)cc1` [Example 15, 2,2-dimethyl-3-(4-(5-methyl-2-((1-(tetrahydro-2H-pyran-4-yl)-1H-pyrazol-4-yl)amino)pyrimidin-4-yl)phenoxy)propanenitrile] were, in that order, 5.71 nM and less than 1.25 nM.

The values above are taken from patent US12024503B2, “Benzethers and anilines of pyrazolyl-amino-pyrimidinyl derivatives, and compositions and methods thereof” (LYNK PHARMACEUTICALS CO. LTD., priority 2019, dated 2024).
